Patent US20110039825A1, “LIGANDS OF ALPHA-ADRENOCEPTORS, DOPAMINE, HISTAMINE, IMIDAZOLINE AND SEROTONIN RECEPTORS AND THEIR USE” (Alla Chem, LLC, priority 2007, published 2011)
Like-named read-outs stand apart in the source and are kept apart here.

Tests used:
[1] = biological target: T1, human H1 receptor (Homo sapiens, UniProt P35367); experiment: radioligand binding to histamine receptor H1 ([3H] Pyrilamine); conditions: for Histamine receptor H1, % inhibition: 10 μM ligand
T1 construct: expressed in transfected cells; host or cells: CHO-K1
T1 sequence (P35367 whole entry): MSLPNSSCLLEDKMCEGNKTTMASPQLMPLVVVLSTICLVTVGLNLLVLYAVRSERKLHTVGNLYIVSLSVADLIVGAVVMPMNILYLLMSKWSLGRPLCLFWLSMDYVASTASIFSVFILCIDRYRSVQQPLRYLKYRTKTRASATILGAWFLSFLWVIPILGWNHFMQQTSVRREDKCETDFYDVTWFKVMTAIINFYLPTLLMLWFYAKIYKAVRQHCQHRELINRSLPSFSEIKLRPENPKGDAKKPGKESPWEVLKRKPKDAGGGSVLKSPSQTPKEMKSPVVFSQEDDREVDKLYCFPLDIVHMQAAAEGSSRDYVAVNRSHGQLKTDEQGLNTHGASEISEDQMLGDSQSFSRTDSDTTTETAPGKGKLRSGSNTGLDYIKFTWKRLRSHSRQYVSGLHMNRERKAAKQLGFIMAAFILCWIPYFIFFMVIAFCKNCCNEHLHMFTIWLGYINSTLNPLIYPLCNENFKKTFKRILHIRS
From the text: Biochem Biophys Res Comm. 197(3): 1601-1608, 1993]. […] Biochem Biophys Res Comm. 197(3): 1601-1608, 1993].
Pyrilamine is used as positive control.

[2] = biological target: T2, adrenergic receptor α1B (Rattus norvegicus, UniProt P15823); experiment: radioligand binding to adrenergic receptor α1B ([3H] Prazosin)
T2 construct: membrane species from rat liver (rat of Wistar breed) are prepared; from tissue; host or cells: rat (Wistar) liver membranes
T2 sequence (P15823 1-515): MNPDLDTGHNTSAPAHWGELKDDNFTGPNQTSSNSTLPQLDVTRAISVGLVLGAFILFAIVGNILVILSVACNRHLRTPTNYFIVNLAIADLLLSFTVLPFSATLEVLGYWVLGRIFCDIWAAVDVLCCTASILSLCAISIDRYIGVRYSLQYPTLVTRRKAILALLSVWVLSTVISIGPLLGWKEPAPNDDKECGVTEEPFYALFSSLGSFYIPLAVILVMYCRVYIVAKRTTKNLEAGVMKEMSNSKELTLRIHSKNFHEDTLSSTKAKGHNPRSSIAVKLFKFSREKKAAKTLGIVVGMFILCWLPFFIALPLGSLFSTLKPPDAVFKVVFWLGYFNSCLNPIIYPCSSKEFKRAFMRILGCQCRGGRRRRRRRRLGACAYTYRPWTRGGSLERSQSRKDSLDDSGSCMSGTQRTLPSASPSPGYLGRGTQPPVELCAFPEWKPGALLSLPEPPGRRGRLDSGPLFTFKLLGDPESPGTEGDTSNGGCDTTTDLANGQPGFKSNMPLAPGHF
From the text: Species heterogeneity of hepatic α1A-, α1B-, and α1C-subtypes. Biochem Biophys Res Commun. 186:760-7676 1992]. […] Prazosin is used as positive control.

[3] = biological target: T3, human D3 receptor (Homo sapiens, UniProt P35462); experiment: radioligand binding to dopamine receptor D3 ([3H] Spiperone); conditions: for Dopamine receptor D3, % inhibition: 10 μM ligand
T3 construct: expressed in transfected cells; host or cells: CHO
T3 sequence (P35462 whole entry): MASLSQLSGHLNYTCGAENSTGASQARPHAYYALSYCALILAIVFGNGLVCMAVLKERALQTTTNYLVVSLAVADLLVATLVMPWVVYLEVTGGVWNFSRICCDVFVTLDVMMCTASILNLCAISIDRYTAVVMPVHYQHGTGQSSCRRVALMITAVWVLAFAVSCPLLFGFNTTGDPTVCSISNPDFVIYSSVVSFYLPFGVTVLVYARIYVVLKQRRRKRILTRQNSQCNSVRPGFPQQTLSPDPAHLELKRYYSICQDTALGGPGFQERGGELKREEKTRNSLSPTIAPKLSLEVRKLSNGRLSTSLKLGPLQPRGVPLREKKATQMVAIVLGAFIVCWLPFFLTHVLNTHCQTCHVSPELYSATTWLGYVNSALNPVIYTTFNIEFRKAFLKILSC
From the text: For this purpose sDNA of human D3 receptor is expressed in CHO cells, as it was described in [Sokoloff P, Giros B, Martres M-P, Bouthenet M-L and Schwartz J-C. Molecular cloning and characterization of novel dopamine receptor (D3) as target for neuroleptics. Nature. […] Molecular cloning and characterization of novel dopamine receptor (D3) as target for neuroleptics. Nature. […] Spiperone is used as positive control.

[4] = test system: imidazoline receptor I2; experiment: radioligand binding to imidazoline receptor I2 ([3H] Idazoxan); design: species or system rat
Protocol: Determination of investigated compounds' binding to imidazoline I2 receptor is carried out according to the method described in [Brown C M, MacKinnon A C, McGrath J C, Spedding M and Kilpatrick A T, a2-Adrenoceptor subtypes and imidazoline-like binding in the rat brain. Br J. Pharmacol. 99:803-809, 1990]. […] Idazoxan is used as positive control.

[5] = biological target: T4, human D1 receptor (Homo sapiens, UniProt P21728); experiment: radioligand binding to dopamine receptor D1 ([3H] SCH-23390); conditions: for Dopamine receptor D1, % inhibition: 10 μM ligand
T4 construct: expressed in transfected cells; host or cells: CHO
T4 sequence (P21728 whole entry): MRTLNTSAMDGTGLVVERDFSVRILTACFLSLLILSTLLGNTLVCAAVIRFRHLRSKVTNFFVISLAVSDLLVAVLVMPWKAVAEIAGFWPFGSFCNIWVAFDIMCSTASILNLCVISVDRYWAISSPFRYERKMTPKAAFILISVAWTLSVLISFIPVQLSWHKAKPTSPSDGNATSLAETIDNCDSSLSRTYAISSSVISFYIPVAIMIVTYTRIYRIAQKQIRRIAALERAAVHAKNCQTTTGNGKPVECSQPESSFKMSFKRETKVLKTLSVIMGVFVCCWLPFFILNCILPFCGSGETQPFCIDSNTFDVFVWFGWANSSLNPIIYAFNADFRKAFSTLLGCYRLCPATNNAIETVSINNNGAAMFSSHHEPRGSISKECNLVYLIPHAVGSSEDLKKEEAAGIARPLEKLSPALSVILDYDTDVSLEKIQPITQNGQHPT
From the text: For this purpose sDNA of human D1 receptor is expressed in CHO cells, as it was described in [Dearry A, Gingrich J A, Falardeau P, Fremeau R T Jr, Bates M D and Caron M G. Molecular cloning and expression of the gene for a human D1 dopamine receptor. Nature. […] Nature.

[6] = biological target: T5, human D2S receptor (Homo sapiens, UniProt P14416); experiment: radioligand binding to dopamine receptor D2S ([3H] Spiperone); conditions: for Dopamine receptor D2S, % inhibition: 10 μM ligand
T5 construct: expressed in transfected cells; host or cells: CHO
T5 sequence (P14416 1-414 isoform P14416-2): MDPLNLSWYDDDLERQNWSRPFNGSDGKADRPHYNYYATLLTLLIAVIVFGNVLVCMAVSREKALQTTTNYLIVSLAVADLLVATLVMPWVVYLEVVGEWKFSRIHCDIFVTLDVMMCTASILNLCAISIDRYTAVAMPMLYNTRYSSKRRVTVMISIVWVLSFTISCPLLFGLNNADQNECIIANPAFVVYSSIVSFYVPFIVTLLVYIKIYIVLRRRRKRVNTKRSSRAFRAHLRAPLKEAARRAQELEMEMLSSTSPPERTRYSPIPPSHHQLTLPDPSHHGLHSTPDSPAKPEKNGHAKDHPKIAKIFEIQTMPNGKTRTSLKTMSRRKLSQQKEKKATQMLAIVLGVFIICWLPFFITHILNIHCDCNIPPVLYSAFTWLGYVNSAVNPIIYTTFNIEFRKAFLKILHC
From the text: 7-C. […] For this purpose sDNA of human D2S receptor is expressed in CHO cells, as described in [Hayes G, Biden T J, Selbie L A and Shine J, Structural subtypes of the dopamine D2 receptor are functionally distinct. […] Mol. Endocrinol. […] Mol. Endocrinol. […] Spiperone is used as positive control.

[7] = biological target: T6, recombinant human 5-HT6 receptor (Homo sapiens, UniProt P50406); experiment: radioligand binding to serotonin receptor 5-HT6 ([3H] Lysergic acid diethylamide); conditions: for inhibition at 1 µM: read-out: 5-HT6 % inhibition
T6 construct: expressed in transfected cells; host or cells: HeLa
T6 sequence (P50406 whole entry): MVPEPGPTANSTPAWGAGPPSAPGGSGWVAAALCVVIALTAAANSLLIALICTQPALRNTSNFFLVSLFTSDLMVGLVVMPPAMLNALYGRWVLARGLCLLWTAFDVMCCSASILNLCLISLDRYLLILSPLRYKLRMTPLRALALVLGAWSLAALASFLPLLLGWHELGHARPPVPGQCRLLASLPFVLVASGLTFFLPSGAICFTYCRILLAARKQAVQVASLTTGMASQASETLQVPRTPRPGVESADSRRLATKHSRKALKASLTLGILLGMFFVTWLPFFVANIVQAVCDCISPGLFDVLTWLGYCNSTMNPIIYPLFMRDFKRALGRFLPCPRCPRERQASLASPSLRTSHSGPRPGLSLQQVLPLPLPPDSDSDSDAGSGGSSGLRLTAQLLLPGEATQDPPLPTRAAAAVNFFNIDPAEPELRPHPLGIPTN
From the text: Mol. Pharmacol. 43:320-327, 1993]. […] Methiothepin is used as positive control.

[8] = biological target: T7, adrenergic receptor α1A (Rattus norvegicus, UniProt P43140); experiment: radioligand binding to adrenergic receptor α1A ([3H] Prazosin)
T7 construct: membrane species from rat submaxillary glands (rat of Wistar breed) are prepared; from tissue; host or cells: rat (Wistar) submaxillary gland membranes
T7 sequence (P43140 1-466): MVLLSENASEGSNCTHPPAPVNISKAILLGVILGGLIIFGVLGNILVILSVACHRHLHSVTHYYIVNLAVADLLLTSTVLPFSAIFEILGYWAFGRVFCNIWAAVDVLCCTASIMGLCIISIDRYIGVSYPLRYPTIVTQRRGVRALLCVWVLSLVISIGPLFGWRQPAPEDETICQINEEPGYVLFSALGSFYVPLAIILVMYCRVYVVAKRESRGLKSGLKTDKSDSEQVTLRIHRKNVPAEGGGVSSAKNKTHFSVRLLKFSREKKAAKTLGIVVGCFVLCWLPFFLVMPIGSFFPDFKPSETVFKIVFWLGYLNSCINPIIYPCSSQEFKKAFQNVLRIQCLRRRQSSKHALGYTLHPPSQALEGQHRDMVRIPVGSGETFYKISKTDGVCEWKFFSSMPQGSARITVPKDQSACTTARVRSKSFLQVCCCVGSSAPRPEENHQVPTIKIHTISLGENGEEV
Protocol: Determination of investigated compounds' binding to α1A receptor was carried out according to the method described in [Michel A D, Loury D N and Whiting R l. Identification of a single α1A-adrenoceptor corresponding to the α1A-subtype in rat submaxillary gland. Br J. Pharmacol. 98:883-889, 1989]. […] Prazosin is used as positive control.

SMILES | Histamine receptor H1, % inhibition [1] [%] | α-Adrenoceptor α1B, % inhibition ([2]; 10 μM ligand) [%] | Dopamine receptor D3, % inhibition [3] [%] | imidazoline I2 receptor % inhibition ([4]; 10 μM ligand) [%] | Dopamine receptor D1, % inhibition [5] [%] | Dopamine receptor D2S, % inhibition [6] [%] | IC50 [7] [nM] | Ki [7] [nM] | nH 5-HT6 [7] | IC50 [8] [nM] | Ki [8] [nM] | IC50 [2] [nM] | Ki [2] [nM] | further results
Cc1ccc2c(c1)[C@@H]1CN(C)CCC[C@@H]1N2CCc1ccc(C)nc1.Cl.Cl.Cl (relative stereo) [1.6.1(2)•3HCl] | 102 | 93 | 41 | 80 | 55 | 31 | – | – | – | – | – | – | – | –
Cc1ccc2c(c1)c1c(n2CCc2ccccn2)CCN(C)C1.Cl.Cl [1.1.2(2-3)•2HCl] | 98 | – | – | 88 | – | – | 109 | 50.5 | 0.744 | 450 | 182 | 47 | 26 | inhibition at 1 µM ([7]; ligand concentration 1 μM): 97%
Cc1ccc2c(c1)[C@H]1CN(C)CCC[C@@H]1N2CCc1cccnc1 [1.6.2(10)•3HCl] | 103 | 92 | 25 | – | 88 | 33 | – | – | – | – | – | – | – | inhibition at 1 µM [7]: 93%; α-Adrenoceptor α1A, % inhibition ([8]; 10 μM ligand): 86%
CN1CCc2c(c3ccccc3n2Cc2ccccc2)C1 [1.9(1)•½NDSA, bis-(5-benzyl-2-methyl-2,3,4,5-tetrahydro-1H-pyrido[4,3-b]indole) naphtalene-1,5-disulfonate] | – | – | 65 | – | 77 | 51 | 103 | 47.6 | 1.07 | 510 | 206 | 1580 | 872 | 5-HT6 % inhibition ([7]; 0.3 μM ligand): 78%; IC50 [1]: 3.97 nM; Ki [1]: 1.9 nM; nH H1 [1]: 0.789; nH α1A [8]: 1.08; α-Adrenoceptor α1A, % inhibition ([8]; 1 μM ligand): 67(1 μM) %; nH α1B [2]: 0.956; α-Adrenoceptor α1B, % inhibition ([2]; 3 μM ligand): 62(3 μM) %; IC50 [3]: 1360 nM; Ki [3]: 462 nM; nH D3 [3]: 1.04; imidazoline I2 receptor % inhibition ([4]; 0.3 μM ligand): 87 (0.3 μM) %; nH D1 [5]: 1.38; IC50 [6]: 3000 nM; Ki [6]: 1080 nM; nH D2S [6]: 0.879
